# Source: patent publication US20160200733A1, “SUBSTITUTED THIENO[2,3-B]PYRIDINE-2-CARBOXAMIDE ANALOGS AS POSITIVE ALLOSTERIC MODULATORS OF THE MUSCARINIC ACETYLCHOLINE RECEPTOR M4” (Vanderbilt University, priority 2013, published 2016)
# Biological target: T1, mAChR hM4 (Homo sapiens, UniProt P08173)
# T1 construct: expressed in transfected cells; host or cells: CHO-K1 (Chinese hamster ovary) cells
# T1 sequence (P08173 1-479): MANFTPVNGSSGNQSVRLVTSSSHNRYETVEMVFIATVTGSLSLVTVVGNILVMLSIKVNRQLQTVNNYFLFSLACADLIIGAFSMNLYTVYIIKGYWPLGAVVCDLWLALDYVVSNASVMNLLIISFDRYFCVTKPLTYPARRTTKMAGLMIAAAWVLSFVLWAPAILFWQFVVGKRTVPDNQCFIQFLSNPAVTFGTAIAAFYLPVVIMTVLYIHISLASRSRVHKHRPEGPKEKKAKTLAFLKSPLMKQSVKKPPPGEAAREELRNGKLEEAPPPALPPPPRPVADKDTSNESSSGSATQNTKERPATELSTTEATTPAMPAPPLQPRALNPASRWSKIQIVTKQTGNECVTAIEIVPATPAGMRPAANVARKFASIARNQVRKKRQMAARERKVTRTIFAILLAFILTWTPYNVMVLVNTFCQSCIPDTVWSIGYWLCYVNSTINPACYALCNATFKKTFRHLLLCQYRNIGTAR
# Experiment: mAChR M4 cell-based functional assay (calcium flux, potentiation of EC20 acetylcholine response)
# Conditions: mAChR hM4 cell-line; for EC50: >10,000 estimated for low potency compounds lacking a plateau; for Emax at 30 µM: % ACh maximum at 30 μM
# Text: In one aspect, the disclosed compounds potentiate the agonist response (e.g., acetylcholine) of mAChR M4. In a further aspect, the disclosed compounds increase mAChR M4 response to non-maximal concentrations of agonist in the presence of compound compared to the response to agonist in the absence of compound. […] For example, activation of mAChR M4 activity can be determined by measurement of calcium flux in response to agonist, e.g. acetylcholine, in cells loaded with a Ca^2+-sensitive fluorescent dye (e.g., Fluo-4). In a further aspect, the calcium flux was measured as an increase in fluorescent static ratio. In a yet further aspect, positive allosteric modulator activity was analyzed as a concentration-dependent increase in the EC20 acetylcholine response (i.e. the response of mAChR M4 at a concentration of acetylcholine that yields 20% of the maximal response).
# In one aspect, the disclosed compounds activate mAChR M4 response as an increase in calcium fluorescence in mAChR M4-transfected CHO-K1 cells in the presence of the compound, compared to the response of equivalent CHO-K1 cells in the absence of the compound. […] In a further aspect, the mAChR M4-transfected CHO-K1 cells are transfected with human mAChR M4. In a still further aspect, the mAChR M4-transfected CHO-K1 cells are transfected with rat mAChR M4.
# Substituted 3-aminothieno[2,3-c]pyridine-2-carboxamide analogs were synthesized as described above. Activity (EC50 and Emax) was determined in the mAChR M4 cell-based functional assay as described above, and the data are shown in Table II for assays conducted using mAChR hM4 cell-line. The compound number corresponds to the compound numbers used in Table I.
EC50 [µM],Emax at 30 µM [%],SMILES
> 10,,"COc1ccc(CNC(=O)c2sc3nc(C)c(Cl)c(C)c3c2C2CC2)cc1F [Compound 69, 5-chloro-3-cyclopropyl-N-(3-fluoro-4-methoxybenzyl)-4,6-dimethylthieno[2,3-b]pyridine-2-carboxamide]"
> 10,,"Cc1cc(C)c2c(-c3cnn(C)c3)c(C(=O)NCc3ccc4c(c3)CCO4)sc2n1 [Compound 70, N-((2,3-dihydrobenzofuran-5-yl)methyl)-4,6-dimethyl-3-(1-methyl-1H-pyrazol-4-yl)thieno[2,3-b]pyridine-2-carboxamide]"
> 10,,"Cc1cc(C)c2c(-c3cnn(C)c3)c(C(=O)NCc3cnn(-c4ccccc4)c3)sc2n1 [Compound 71, 4,6-dimethyl-3-(1-methyl-1H-pyrazol-4-yl)-N-((1-phenyl-1H-pyrazol-4-yl)methyl)thieno[2,3-b]pyridine-2-carboxamide]"
> 10,,"Cc1nc2sc(C(=O)N3CC(c4ccccc4)C3)c(C3CC3)c2c(C)c1Cl [Compound 72, (5-chloro-3-cyclopropyl-4,6-dimethylthieno[2,3-b]pyridin-2-yl)(3-phenylazetidin-1-yl)methanone]"
> 10,,"Cc1nc2sc(C(=O)NCc3cnn(-c4ccccc4)c3)c(C3CC3)c2c(C)c1Cl [Compound 73, 5-chloro-3-cyclopropyl-4,6-dimethyl-N-((1-phenyl-1H-pyrazol-4-yl)methyl)thieno[2,3-b]pyridine-2-carboxamide]"
> 10,46,"Cc1cc(C)c2cc(C(=O)NC3COC3)sc2n1 [Compound 74, 4,6-dimethyl-N-(oxetan-3-yl)thieno[2,3-b]pyridine-2-carboxamide]"
1.2,67,"Cc1cc(C)c2cc(C(=O)NC3CN(c4cccnc4)C3)sc2n1 [Compound 75, 4,6-dimethyl-N-(1-(pyridin-3-yl)azetidin-3-yl)thieno[2,3-b]pyridine-2-carboxamide]"
> 10,,"Cc1cc(C)c2cc(C(=O)NC3CN(c4ccc(C(F)(F)F)nc4)C3)sc2n1 [Compound 76, 4,6-dimethyl-N-(1-(6-(trifluoromethyl)pyridin-3-yl)azetidin-3-yl)thieno[2,3-b]pyridine-2-carboxamide]"
> 10,,"Cc1cc(C)c2cc(C(=O)NCc3cnn(-c4ccccc4)c3)sc2n1 [Compound 77, 4,6-dimethyl-N-((1-phenyl-1H-pyrazol-4-yl)methyl)thieno[2,3-b]pyridine-2-carboxamide]"
> 10,34,"Cc1cc(C)c2cc(C(=O)NCc3ccc(-c4cccnc4F)cc3)sc2n1 [Compound 78, N-(4-(2-fluoropyridin-3-yl)benzyl)-4,6-dimethylthieno[2,3-b]pyridine-2-carboxamide]"
> 10,,"Cc1cc(C)c2cc(C(=O)NCc3ccc(-c4ccnnc4)s3)sc2n1 [Compound 79, 4,6-dimethyl-N-((5-(pyridazin-4-yl)thiophen-2-yl)methyl)thieno[2,3-b]pyridine-2-carboxamide]"
> 10,,"Cc1cc(C)c2cc(C(=O)NCC3CCN(c4ccccc4)C3)sc2n1 (stereo not drawn) [Compound 80, 4,6-dimethyl-N-((1-phenylpyrrolidin-3-yl)methyl)thieno[2,3-b]pyridine-2-carboxamide]"
0.82,30,"COc1ccc(C2CC2NC(=O)c2cc3c(C)cc(C)nc3s2)cc1 (stereo not drawn) [Compound 81, N-(2-(4-methoxyphenyl)cyclopropyl)-4,6-dimethylthieno[2,3-b]pyridine-2-carboxamide]"
2.4,34,"Cc1cc(C)c2cc(C(=O)N3CC(c4ccccc4)C3)sc2n1 [Compound 82, (4,6-dimethylthieno[2,3-b]pyridin-2-yl)(3-phenylazetidin-1-yl)methanone]"
> 10,,"Cc1cc(C)c2cc(C(=O)N3CCC(c4ccccc4)C3)sc2n1 (stereo not drawn) [Compound 83, (4,6-dimethylthieno[2,3-b]pyridin-2-yl)(3-phenylpyrrolidin-1-yl)methanone]"
6.7,49,"COc1ccc(CNC(=O)c2cc3c(C)cc(C)nc3s2)cc1F [Compound 84, N-(3-fluoro-4-methoxybenzyl)-4,6-dimethylthieno[2,3-b]pyridine-2-carboxamide]"
> 10,,"Cc1cc(C)c2cc(C(=O)NCc3ccc(S(=O)(=O)C(F)(F)F)cc3)sc2n1 [Compound 85, 4,6-dimethyl-N-(4-((trifluoromethyl)sulfonyl)benzyl)thieno[2,3-b]pyridine-2-carboxamide]"
> 10,,"Cc1nc2sc(C(=O)N3CCC(c4ccccc4)C3)c(-c3cnn(C)c3)c2c(C)c1Cl (stereo not drawn) [Compound 86, (5-chloro-4,6-dimethyl-3-(1-methyl-1H-pyrazol-4-yl)thieno[2,3-b]pyridin-2-yl)(3-phenylpyrrolidin-1-yl)methanone]"
> 10,,"Cc1nc2sc(C(=O)NC3CCC3)c(-c3cnn(C)c3)c2c(C)c1Cl [Compound 87, 5-chloro-N-cyclobutyl-4,6-dimethyl-3-(1-methyl-1H-pyrazol-4-yl)thieno[2,3-b]pyridine-2-carboxamide]"
> 10,,"Cc1nc2sc(C(=O)NC3CCCOC3)c(-c3cnn(C)c3)c2c(C)c1Cl (stereo not drawn) [Compound 88, 5-chloro-4,6-dimethyl-3-(1-methyl-1H-pyrazol-4-yl)-N-(tetrahydro-2H-pyran-3-yl)thieno[2,3-b]pyridine-2-carboxamide]"
> 10,,"Cc1nc2sc(C(=O)NC3CCS(=O)(=O)C3)c(-c3cnn(C)c3)c2c(C)c1Cl (stereo not drawn) [Compound 89, 5-chloro-N-(1,1-dioxidotetrahydrothiophen-3-yl)-4,6-dimethyl-3-(1-methyl-1H-pyrazol-4-yl)thieno[2,3-b]pyridine-2-carboxamide]"
> 10,,"Cc1nc2sc(C(=O)NC3CC3)c(-c3cnn(C)c3)c2c(C)c1Cl [Compound 90, 5-chloro-N-cyclopropyl-4,6-dimethyl-3-(1-methyl-1H-pyrazol-4-yl)thieno[2,3-b]pyridine-2-carboxamide]"
> 10,,"Cc1nc2sc(C(=O)NC3CCOC3)c(-c3cnn(C)c3)c2c(C)c1Cl (stereo not drawn) [Compound 91, 5-chloro-4,6-dimethyl-3-(1-methyl-1H-pyrazol-4-yl)-N-(tetrahydrofuran-3-yl)thieno[2,3-b]pyridine-2-carboxamide]"
> 10,,"Cc1nc2sc(C(=O)NC3CN(c4cccnc4)C3)c(-c3cnn(C)c3)c2c(C)c1Cl [Compound 92, 5-chloro-4,6-dimethyl-3-(1-methyl-1H-pyrazol-4-yl)-N-(1-(pyridin-3-yl)azetidin-3-yl)thieno[2,3-b]pyridine-2-carboxamide]"
> 10,,"Cc1nc2sc(C(=O)NC3C4CC5CC(C4)CC3C5)c(-c3cnn(C)c3)c2c(C)c1Cl (stereo not drawn) [Compound 93, N-(adamantan-2-yl)-5-chloro-4,6-dimethyl-3-(1-methyl-1H-pyrazol-4-yl)thieno[2,3-b]pyridine-2-carboxamide]"
> 10,,"Cc1nc2sc(C(=O)NC3[C@H]4C[C@H]3C4)c(-c3cnn(C)c3)c2c(C)c1Cl (stereo partly drawn) [Compound 94, N-((1R,3S)-bicyclo[1.1.1]pentan-2-yl)-5-chloro-4,6-dimethyl-3-(1-methyl-1H-pyrazol-4-yl)thieno[2,3-b]pyridine-2-carboxamide]"
> 10,,"Cc1nc2sc(C(=O)NCc3ccc(S(=O)(=O)C(F)(F)F)cc3)c(-c3cnn(C)c3)c2c(C)c1Cl [Compound 95, 5-chloro-4,6-dimethyl-3-(1-methyl-1H-pyrazol-4-yl)-N-(4-((trifluoromethyl)sulfonyl)benzyl)thieno[2,3-b]pyridine-2-carboxamide]"
> 10,,"Cc1nc2sc(C(=O)N[C@H](C)C3CC3)c(-c3cnn(C)c3)c2c(C)c1Cl [Compound 96, (R)-5-chloro-N-(1-cyclopropylethyl)-4,6-dimethyl-3-(1-methyl-1H-pyrazol-4-yl)thieno[2,3-b]pyridine-2-carboxamide]"
> 10,,"Cc1nc2sc(C(=O)N3CCC3)c(-c3cnn(C)c3)c2c(C)c1Cl [Compound 97, azetidin-1-yl(5-chloro-4,6-dimethyl-3-(1-methyl-1H-pyrazol-4-yl)thieno[2,3-b]pyridin-2-yl)methanone]"
> 10,,"Cc1nc2sc(C(=O)NCc3cnn(-c4ccccc4)c3)c(-c3cnn(C)c3)c2c(C)c1Cl [Compound 98, 5-chloro-4,6-dimethyl-3-(1-methyl-1H-pyrazol-4-yl)-N-((1-phenyl-1H-pyrazol-4-yl)methyl)thieno[2,3-b]pyridine-2-carboxamide]"
